Results on 23 compounds are retold here after patent US20250282746A1, “HALOGEN-SUBSTITUTED ISOINDOLINE COMPOUND AND USE THEREOF” (CHENGDU FENDI PHARMACEUTICAL CO., LTD., priority 2022, published 2025).

SMILES strings stand for the structures. Like-named read-outs stand apart in the source and are kept apart here.

Experiment [1] deals with MV-4-11 cells. The experiment is described as follows: Antiproliferative activity against MV-4-11 cells (CellTiter-Glo, 72 h). It is filed as cell-based. As to conditions: Homo sapiens, read-out: Antiproliferative activity IC50. As to the method:
MV411 cells in the logarithmic growth phase were diluted in a medium (RPMI+10% FBS) and plated at 5,000 cells/well in 96-well whole black plates (WHB) with 50 μL/well. After plating, the plates were incubated in an incubator at 5% CO2 and 37° C. for 24 h before the compounds were added. The compounds were prepared into a 10 mM stock solution in DMSO and diluted in a culture medium to the desired concentrations (a final DMSO concentration of 0.2%). […] The plates were incubated at 5% CO2 and 37° C. for 72 h. After the incubation was complete, the plates were equilibrated at room temperature for 30 min. CellTiter-Glo® Reagent (Promega G7573) was added at 100 μL/well. The plates were shaken for 12 min on a microplate shaker. The luminescence value was measured at room temperature by the GloMax navigator (Promega GM2010).
(In general: In ATP-based viability assays light output follows the ATP content of the culture.)

Experiment [2] addresses T1, GSPT1 protein (Homo sapiens, UniProt P15170).
T1 construct: The whole cell lysate was prepared using a RIPA lysis buffer; endogenous in cells; host or cells: NB-4 cells
The experiment is described as follows: Degradation of GSPT1 protein in NB-4 cells (Western blot). It is filed as cell-based. Particulars: read-out: GSPT1 degradation. As for the experimental part: 150 μL of DMSO and the compounds (1 μM) were added, and the mixture was incubated in an incubator at 5% CO2 and 37° C. for 6 h. The cells were centrifuged, and the culture medium was discarded. PBS was added for washing and then discarded. The whole cell lysate was prepared using a RIPA lysis buffer containing a protease inhibitor cocktail and a phosphatase inhibitor, and incubated on ice for 30 min. The mixture was centrifuged, and the cell debris was discarded. The whole cell lysate supernatant was collected and transferred to a fresh EP tube. Samples were prepared using a loading buffer after a BCA protein assay. The samples were incubated in a metal bath at 100° C. for 10 min.
The samples were electrophoretically separated from proteins on a 4-20% precast gel (SDS-PAGE gel), transferred to a PVDF membrane, blocked with 5% NFDM/TBST for 1 h at room temperature, co-incubated overnight at 4° C. with the primary antibody, and co-incubated for 2 h at room temperature with the secondary antibody on the next day. The signals were detected on the […]™ imaging system.

T1 sequence (P15170 whole entry): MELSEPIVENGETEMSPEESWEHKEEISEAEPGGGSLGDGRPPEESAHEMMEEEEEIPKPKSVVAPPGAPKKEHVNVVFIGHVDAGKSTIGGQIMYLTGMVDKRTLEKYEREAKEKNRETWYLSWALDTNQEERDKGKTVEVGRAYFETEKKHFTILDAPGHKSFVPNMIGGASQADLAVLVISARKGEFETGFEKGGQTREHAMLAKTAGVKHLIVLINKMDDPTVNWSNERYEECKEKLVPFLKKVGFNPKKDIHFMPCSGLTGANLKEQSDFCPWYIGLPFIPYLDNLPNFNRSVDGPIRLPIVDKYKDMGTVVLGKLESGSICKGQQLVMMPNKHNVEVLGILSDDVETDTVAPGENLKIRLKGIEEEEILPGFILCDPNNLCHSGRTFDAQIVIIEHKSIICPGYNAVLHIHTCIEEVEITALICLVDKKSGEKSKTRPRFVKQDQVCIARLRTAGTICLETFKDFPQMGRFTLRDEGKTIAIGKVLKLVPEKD

By IC50 is commonly meant the concentration that gives 50% inhibition. For `CS(=O)(=O)c1ccc(C(=O)NCc2ccc3c(c2F)CN(C2CCC(=O)NC2=O)C3=O)cc1` (stereo not shown) [FDAB-107], the 50% inhibitory concentration (IC50) in experiment [1] (MV4-11, MV-4-11 cells, 72 h) was greater than 1000 nM. Besides, the inhibition at 1 µM in experiment [2] (NB-4 cells, compound 1 μM, 6 h) is less than 25%.
Turning to `COc1cc(C)c(/C=C/C(C)=C/C=C/C(C)=C/C(=O)NCc2ccc3c(c2F)CN(C2CCC(=O)NC2=O)C3=O)c(C)c1C` (stereo not shown) [FDAB-162], the IC50 in experiment [1] (MV4-11, MV-4-11 cells, 72 h) was less than 1 nM. Besides, in experiment [2] (NB-4 cells, compound 1 μM, 6 h), the inhibition at 1 µM is greater than 80%.
For `CCCc1ccc(CNCc2ccc3c(c2F)CN(C2CCC(=O)NC2=O)C3=O)cc1` (stereo not shown) [FDAB-167] the same measures were 1 to 10 nM and greater than 80%.
`Cc1ccc(C(=O)NCc2ccc3c(c2Cl)CN(C2CCC(=O)NC2=O)C3=O)c(F)c1` (stereo not shown) [FDAB-123]: the IC50 in experiment [1] (MV4-11, MV-4-11 cells, 72 h) was 10 to 100 nM. Also, the inhibition at 1 µM in experiment [2] (NB-4 cells, compound 1 μM, 6 h) was 50 to 80%.
On the same counts, the results for `O=C1CCC(N2Cc3cc(CNC(=O)c4nc5ccccc5s4)c(F)cc3C2=O)C(=O)N1` (stereo not shown) [FDAB-32] are 10 to 100 nM and greater than 80%.
As for `CC(C)OC(=O)OCN1C(=O)CCC(N2Cc3c(ccc(CNC(=O)c4ccc(Cl)cc4)c3F)C2=O)C1=O` (stereo not shown) [FDAB-128], in experiment [1] (MV4-11, 72 h), the concentration for half-maximal inhibition (IC50) was 10 to 100 nM. Also, the inhibition at 1 µM in experiment [2] (NB-4, 6 h) is 50 to 80%.
As to `O=C1CCC(N2Cc3c(ccc(CNC(=O)C4(c5ccc(Br)cc5F)CC4)c3F)C2=O)C(=O)N1` (stereo not shown) [FDAB-141], the IC50 in experiment [1] (MV4-11, MV-4-11 cells, 72 h) was greater than 1000 nM. Besides, in experiment [2] (NB-4 cells, compound 1 μM, 6 h), the inhibition at 1 µM is less than 25%.
For `CCN1C(=O)CCC(N2Cc3c(ccc(CNC(=O)c4ccc(Cl)cc4)c3F)C2=O)C1=O` (stereo not shown) [FDAB-125] the same measures were greater than 1000 nM and less than 25%.
For `O=C1CCC(N2Cc3cc(CNC(=O)c4ccc(O)cc4)c(F)cc3C2=O)C(=O)N1` (stereo not shown) [FDAB-28] the same measures were greater than 1000 nM and less than 25%.
On the same counts, the results for `O=C1CCC(N2Cc3cc(CNC(=O)c4ccc(C(F)(F)F)cc4)c(F)cc3C2=O)C(=O)N1` (stereo not shown) [FDAB-52] are 1 to 10 nM and greater than 80%.
`NCc1cc2c(cc1Cl)C(=O)N(C1CCC(=O)NC1=O)C2` (stereo not shown) [FDAB-15]: the IC50 in experiment [1] (MV4-11, MV-4-11 cells, 72 h) was greater than 1000 nM. The inhibition at 1 µM in experiment [2] (NB-4 cells, compound 1 μM, 6 h) was less than 25%.
On the same counts, the results for `O=C1CCC(N2Cc3cc(CNC(=O)c4cc5ccccc5o4)cc(F)c3C2=O)C(=O)N1` (stereo not shown) [FDAB-21] are greater than 1000 nM and less than 25%.
For `O=C(CSc1ccncc1)NCc1ccc2c(c1F)CN(C1CCC(=O)NC1=O)C2=O` (stereo not shown) [FDAB-155] the same measures were greater than 1000 nM and less than 25%.
On to `Cc1ccc(C(=O)NCc2ccc3c(c2F)CN(C2CCC(=O)NC2=O)C3=O)c(O)c1` (stereo not shown) [FDAB-109], for which the IC50 in experiment [1] (MV4-11, MV-4-11 cells, 72 h) was 1 to 10 nM. The inhibition at 1 µM in experiment [2] (NB-4 cells, compound 1 μM, 6 h) is greater than 80%.
For `O=C1CCC(N2Cc3c(ccc(CNC(=O)c4ccccc4)c3F)C2=O)C(=O)N1` (stereo not shown) [FDAB-81] the same measures were greater than 1000 nM and less than 25%.
For the compound `O=C(Cc1c[nH]c2cccc(Br)c12)NCc1ccc2c(c1F)CN(C1CCC(=O)NC1=O)C2=O` (stereo not shown) [FDAB-135], the IC50 in experiment [1] (MV4-11, MV-4-11 cells, 72 h) fell in the range of 1 to 10 nM. The inhibition at 1 µM in experiment [2] (NB-4 cells, compound 1 μM, 6 h) was greater than 80%.
Consider `CC(C)(C)OC(=O)NCc1cc2c(cc1F)C(=O)N(C1CCC(=O)NC1=O)C2` (stereo not shown) [FDAB-5], for which, in experiment [1] (MV4-11, MV-4-11 cells, 72 h), the 50% inhibitory concentration (IC50) was greater than 1000 nM. For the same compound, the inhibition at 1 µM in experiment [2] (NB-4 cells, compound 1 μM, 6 h) was less than 25%.
For `Cc1ccc(C(=O)NCc2ccc3c(c2F)CN(C2CCC(=O)NC2=O)C3=O)c(N)c1` (stereo not shown) [FDAB-111] the same measures were greater than 1000 nM and less than 25%.
On the same counts, the results for `O=C1CCC(N2Cc3c(ccc(CNC(=O)c4ccc(Cl)c(F)c4)c3F)C2=O)C(=O)N1` (stereo not shown) [FDAB-116] are 1 to 10 nM and greater than 80%.
For `CN(C)c1ccc(C(=O)NCc2ccc3c(c2F)CN(C2CCC(=O)NC2=O)C3=O)cc1` (stereo not shown) [FDAB-86], the IC50 in experiment [1] (MV4-11, MV-4-11 cells, 72 h) was in the range of 1 to 10 nM. Moreover, the inhibition at 1 µM in experiment [2] (NB-4 cells, compound 1 μM, 6 h) was greater than 80%.
For the compound `O=C1CCC(N2Cc3c(ccc(CNC(=O)c4ccc5ccccc5n4)c3F)C2=O)C(=O)N1` (stereo not shown) [FDAB-66], the half-inhibitory concentration (IC50) in experiment [1] (MV4-11, MV-4-11 cells, 72 h) was in the range of 10 to 100 nM. Further, in experiment [2] (NB-4 cells, compound 1 μM, 6 h), the inhibition at 1 µM was greater than 80%.
For `Cc1ccc(C(=O)NCc2cc3c(cc2F)C(=O)N(C2CCC(=O)NC2=O)C3)cc1` (stereo not shown) [FDAB-51] the same measures were 10 to 100 nM and greater than 80%.
On the same counts, the results for `O=C1CCC(N2Cc3c(ccc(CNC(=O)c4ccc(Cl)c(F)c4)c3Cl)C2=O)C(=O)N1` (stereo not shown) [FDAB-118] are 10 to 100 nM and 50 to 80%.
